Values after ≈ are worked out from the molar mass of the structure shown. Read-outs that look alike come from different tables or passages of the source.
Key:
C. parapsilosis NCPF3209 = assay: microbe, parasite or virus in culture; format: cell-based, Candida parapsilosis; settings: Lodderomyces parapsilosis, NCPF3209; Table 4, common panel; 24 hours, ≥50% inhibition; read-out: MIC C. parapsilosis NCPF3209
Procedure: (§1) The minimum inhibitory concentration of test compounds were determined in a panel of Candida species (see Table 4 below), using the a serial dilution method in 96-well plates using the following protocol.
(§2) Starter cultures of fungal strains to be tested were grown in 3 mL of RPMI 2% glucose media incubated at 37° C. with shaking at 200 rpm overnight. The culture media used was 900 mL H2O; 10.4 g RPMI 1640 (with L-glutamine and a pH indicator but without bicarbonate); 34.5 g MOPS and 18 g glucose. The pH of the media was adjusted to 7.0 with 1 M sodium hydroxide.
(§3) Solutions of the compound to be tested were prepared by dissolving the compound in DMSO and subsequently into media to the desired concentrations. […] The last two rows of each plate were control rows containing the culture media alone and the media plus fungi.
(§4) The fungi starter cultures were diluted 1:10 in water in cuvettes. This was then further diluted to an optical density (OD600) of 0.01 in media. 100 μL of the fungi was added to each well giving a starting concentration of fungus of 0.5-5×10^5/mL. One species of fungus was used on each plate. The plates were then held at 37° C. for 24 hours.
(§5) A plate reader was used to measure growth in each well at OD530 nm and the MIC was determined for each test compound. The MIC is defined as the lowest concentration giving rise to inhibition of ≥50% of that of the drug-free control well containing the fungus and media.

C. albicans NCPF3281 = assay: Candida panel MIC, serial dilution in 96-well plates; format: cell-based, Candida albicans; settings: Candida albicans, read-out: MIC C. albicans NCPF3281
Procedure: as §1, §2
(§6) Solutions of the compound to be tested were prepared by dissolving the compound in DMSO and subsequently into media to the desired concentrations. 200 μL of compound solution was then added to the wells of the 96-well plate using a serial dilution method row-by row of the plate to give a compound concentration gradient across the plate of from 128 μg/mL to 0.25 μg/mL. The last two rows of each plate were control rows containing the culture media alone and the media plus fungi.
as §4, §5

Candida auris TDG2211 = assay: microbe, parasite or virus in culture; format: cell-based; settings: Candidozyma auris, TDG2211; Table 4, extended panel; 24 hours, ≥50% inhibition; read-out: MIC Candida auris TDG2211
Procedure: as §1, §2, §3, §4, §5
(§7) The Candida auris strains shown in Table 7 were either taken from the National Collection of Pathogenic Fungi (NCPF) or collected as part of ongoing surveillance studies. The strains were characterised as follows.

Candida auris TDG2506 = assay: microbe, parasite or virus in culture; format: cell-based; settings: Candidozyma auris, TDG2506; Table 4, extended panel; 24 hours, ≥50% inhibition; read-out: MIC Candida auris TDG2506
Procedure: as §1, §2, §3, §4, §5, §7

C. krusei NCPF3876 = assay: microbe, parasite or virus in culture; format: cell-based, Candida krusei; settings: Pichia kudriavzevii, NCPF3876; Table 4, common panel; 24 hours, ≥50% inhibition; read-out: MIC C. krusei NCPF3876
Procedure: as §1, §2, §3, §4, §5

C. auris 8977 = assay: Candida panel MIC, serial dilution in 96-well plates; format: cell-based, Candida auris; settings: Candidozyma auris, 8977; Table 4, extended panel; 24 hours, ≥50% inhibition; read-out: MIC C. auris 8977
Procedure: as §1, §2, §3, §4, §5, §7

C. auris 8971 = assay: as above; format: cell-based, Candida auris; settings: Candidozyma auris, 8971; Table 4, extended panel; 24 hours, ≥50% inhibition; read-out: MIC C. auris 8971
Procedure: as §1, §2, §3, §4, §5, §7

C. auris 8984 = assay: as above; format: cell-based, Candida auris; settings: Candidozyma auris, 8984; Table 4, extended panel; 24 hours, ≥50% inhibition; read-out: MIC C. auris 8984
Procedure: as §1, §2, §3, §4, §5, §7

Candida auris TDG2512 = assay: as above; format: cell-based; settings: Candidozyma auris, read-out: MIC Candida auris TDG2512
Procedure: as §1, §2, §6, §4, §5

Candida auris TDG1102 = assay: as above; format: cell-based; settings: Candidozyma auris, TDG1102; Table 4, extended panel; 24 hours, ≥50% inhibition; read-out: MIC Candida auris TDG1102
Procedure: as §1, §2, §6, §4, §5

C. auris TDG1912 = assay: as above; format: cell-based; settings: Candidozyma auris, read-out: MIC C. auris TDG1912
Procedure: as §1, §2, §6, §4, §5

C. tropicalis NCPF8760 = assay: as above; format: cell-based; settings: NCPF8760, Table 4, common panel, 24 hours, ≥50% inhibition, read-out: MIC C. tropicalis NCPF8760
Procedure: as §1, §2, §6, §4, §5

C. glabrata NCPF8018 = assay: as above; format: cell-based, Candida glabrata; settings: Nakaseomyces glabratus, NCPF8018; Table 4, common panel; 24 hours, ≥50% inhibition; read-out: MIC C. glabrata NCPF8018
Procedure: as §1, §2, §3, §4, §5

[1] = NCPF3281, Table 4, common panel, 24 hours, ≥50% inhibition
[2] = TDG2512, Table 4, extended panel, 24 hours, ≥50% inhibition
[3] = TDG1912, Table 4, 24 hours, ≥50% inhibition

Structure (SMILES) | MIC (C. parapsilosis NCPF3209) [µg/mL] | MIC (C. albicans NCPF3281; [1]) [µg/mL] | MIC (Candida auris TDG2211) [µg/mL] | MIC (Candida auris TDG2506) [µg/mL] | MIC (C. krusei NCPF3876) [µg/mL] | MIC (C. auris 8977) [µg/mL] | MIC (C. auris 8971) [µg/mL] | MIC (C. auris 8984) [µg/mL] | MIC (Candida auris TDG2512; [2]) [µg/mL] | MIC (Candida auris TDG1102) [µg/mL] | MIC (C. auris TDG1912; [3]) [µg/mL] | MIC (C. tropicalis NCPF8760) [µg/mL] | MIC (C. glabrata NCPF8018) [µg/mL] | MIC (C. albicans NCPF3281; NCPF3281, 24 h) [µg/mL] | MIC (Candida auris TDG2512; TDG2512, 24 h) [µg/mL] | MIC (C. auris TDG1912; TDG1912, 24 h) [µg/mL]
OC(CN1CCC(Nc2ccc(OCCN3CCCC3)cc2)CC1)(Cn1cncn1)c1ccc(F)cc1F (stereo not shown) [Example 82] | 0.25 (≈ 0.475 µM) | 0.25 (≈ 0.475 µM) | 0.5 to 2 (≈ 0.949 to 3.8 µM) | 4 (≈ 7.6 µM) | 8 (≈ 15.2 µM) | 4 to 16 (≈ 7.6 to 30.4 µM) | 2 to 8 (≈ 3.8 to 15.2 µM) | 4 (≈ 7.6 µM) | 1 (≈ 1.9 µM) | 16 (≈ 30.4 µM) | 4 to 16 (≈ 7.6 to 30.4 µM) | > 32 | 32 (≈ 60.8 µM) | – | – | –
CC1CCN(COc2ccc(NC3CCN(CC(O)(Cn4cncn4)c4ccc(F)cc4F)CC3)cc2)CC1 (stereo not shown) [Example 83] | 0.06 (≈ 0.111 µM) | 0.06 (≈ 0.111 µM) | 0.25 (≈ 0.462 µM) | 0.5 to 2 (≈ 0.925 to 3.7 µM) | 4 (≈ 7.4 µM) | 1 (≈ 1.85 µM) | 1 (≈ 1.85 µM) | 2 (≈ 3.7 µM) | 0.25 (≈ 0.462 µM) | 4 (≈ 7.4 µM) | 1 to 4 (≈ 1.85 to 7.4 µM) | 8 (≈ 14.8 µM) | 8 (≈ 14.8 µM) | – | – | –
Cc1ccc(Oc2ccc(NC3CCN(CC(O)(Cn4cncn4)c4ccc(F)cc4F)CC3)cc2)cc1 (stereo not shown) [Example 85] | 0.00391 to 0.0313 (≈ 0.00753 to 0.0602 µM) | 0.0078 (≈ 0.015 µM) | 0.015 to 0.125 (≈ 0.0289 to 0.241 µM) | 0.0625 to 0.125 (≈ 0.12 to 0.241 µM) | 0.0156 to 0.25 (≈ 0.03 to 0.481 µM) | 0.015 to 0.03 (≈ 0.0289 to 0.0577 µM) | 0.00195 to 0.125 (≈ 0.00375 to 0.241 µM) | 0.0625 to 0.5 (≈ 0.12 to 0.962 µM) | 0.00391 to 0.0313 (≈ 0.00753 to 0.0602 µM) | 0.0625 to 0.25 (≈ 0.12 to 0.481 µM) | 0.0625 (≈ 0.12 µM) | 0.25 (≈ 0.481 µM) | 1 (≈ 1.92 µM) | – | – | –
OC(CN1CCC2(CCC(Nc3ccc(OCCN4CCOCC4)cc3)CC2)C1)(Cn1cncn1)c1ccc(F)cc1F (stereo not shown) [Example 87] | 0.313 (≈ 0.525 µM) | – | 0.125 (≈ 0.209 µM) | 0.125 (≈ 0.209 µM) | 1 (≈ 1.68 µM) | 0.25 (≈ 0.419 µM) | 0.25 (≈ 0.419 µM) | 0.25 (≈ 0.419 µM) | – | 0.5 (≈ 0.838 µM) | – | 2 (≈ 3.35 µM) | 4 (≈ 6.7 µM) | 0.313 (≈ 0.525 µM) | 0.0625 (≈ 0.105 µM) | 0.5 (≈ 0.838 µM)
OC(CN1CCC2(CCN(c3ccc(OCCN4CCOCC4)cc3)CC2)C1)(Cn1cncn1)c1ccc(F)cc1F (stereo not shown) [Example 88] | 0.0313 (≈ 0.0537 µM) | 0.0313 (≈ 0.0537 µM) | 0.125 (≈ 0.215 µM) | 0.25 (≈ 0.429 µM) | 1 (≈ 1.72 µM) | 0.125 (≈ 0.215 µM) | 0.25 (≈ 0.429 µM) | 0.25 (≈ 0.429 µM) | 0.0625 (≈ 0.107 µM) | 0.5 (≈ 0.858 µM) | 0.5 (≈ 0.858 µM) | 1 (≈ 1.72 µM) | 4 (≈ 6.86 µM) | – | – | –
OC(CN1CCCN(c2ccc(OCCN3CCOCC3)cc2)CC1)(Cn1cncn1)c1ccc(F)cc1F (stereo not shown) [Example 89] | 0.0313 (≈ 0.0577 µM) | – | 0.5 (≈ 0.921 µM) | 4 to 8 (≈ 7.37 to 14.7 µM) | 0.5 (≈ 0.921 µM) | 0.25 (≈ 0.461 µM) | 0.25 (≈ 0.461 µM) | 4 to 8 (≈ 7.37 to 14.7 µM) | – | 1 (≈ 1.84 µM) | – | 2 (≈ 3.69 µM) | 2 (≈ 3.69 µM) | 0.156 (≈ 0.287 µM) | 0.25 (≈ 0.461 µM) | 1 (≈ 1.84 µM)
OC(CN1CCCC(Nc2ccc(OCCN3CCOCC3)cc2)CC1)(Cn1cncn1)c1ccc(F)cc1F (stereo not shown) [Example 91] | 0.0625 (≈ 0.112 µM) | 0.0156 (≈ 0.0281 µM) | 0.25 (≈ 0.449 µM) | 4 (≈ 7.19 µM) | 2 (≈ 3.59 µM) | 0.5 (≈ 0.898 µM) | 0.5 (≈ 0.898 µM) | 4 (≈ 7.19 µM) | 0.125 (≈ 0.225 µM) | 2 (≈ 3.59 µM) | 4 (≈ 7.19 µM) | 8 (≈ 14.4 µM) | 16 (≈ 28.7 µM) | – | – | –
